Activity calls are given as the source filed them. Non-standard residues stand in square brackets, D forms with d. Residues, ends and D or L forms follow the SMILES beside them. hArg = N=C(N)NCCCC[C@H](N)C(=O)O; Agb = N=C(N)NCC[C@H](N)C(=O)O; Agp = N=C(N)NC[C@H](N)C(=O)O; Orn = NCCC[C@H](N)C(=O)O; Dab = NCC[C@H](N)C(=O)O; Dap = NC[C@H](N)C(=O)O
Key:
[1] = tested on: Staphylococcus aureus; assay: Antibiofilm activity against methicillin-resistant Staphylococcus aureus assessed as inhibition of biofilm formation incubated for overnight by crystal violet staining based microtiter plate assay; type: functional, organism-based
[2] = tested on: Staphylococcus aureus; assay: Antibiofilm activity against methicillin-resistant Staphylococcus aureus assessed as inhibition of biofilm formation by measuring residual biofilm growth incubated for overnight at 10-fold dilution by crystal violet staining based microtiter plate assay relative to control; type: functional
[3] = tested on: Staphylococcus aureus; assay: Antibacterial activity against methicillin-resistant Staphylococcus aureus assessed as alteration in bacterial growth incubated for overnight by microtiter plate based spectrophotometric analysis; type: functional, organism-based

Row | SMILES | inhibition [1] | residual biofilm growth (% of control) [2] | Activity [3] | Activity [2]
1 | CC[C@H](C)[C@H](NC(=O)[C@H](CCCNC(=N)N)NC(=O)[C@@H](NC(=O)[C@H](C)NC(=O)[C@@H](NC(=O)[C@@H](NC(=O)[C@H](CC(C)C)NC(=O)[C@H](CCCNC(=N)N)NC(=O)[C@@H](N)C(C)C)[C@@H](C)CC)C(C)C)C(C)C)C(=O)N[C@@H](Cc1c[nH]c2ccccc12)C(=O)N[C@@H](CCCNC(=N)N)C(=O)N[C@@H](CCNC(=N)N)C(N)=O (H-VRLIVAVRIWR[Agb]-NH2) | Dose-dependent effect | 39.9% | Active | 
2 | CC[C@H](C)[C@H](NC(=O)[C@H](CCCNC(=N)N)NC(=O)[C@@H](NC(=O)[C@H](C)NC(=O)[C@@H](NC(=O)[C@@H](NC(=O)[C@H](CC(C)C)NC(=O)[C@H](CCCNC(=N)N)NC(=O)[C@@H](N)C(C)C)[C@@H](C)CC)C(C)C)C(C)C)C(=O)N[C@@H](Cc1c[nH]c2ccccc12)C(=O)N[C@@H](CCCNC(=N)N)C(=O)N[C@@H](CNC(=N)N)C(N)=O (H-VRLIVAVRIWR[Agp]-NH2) |  |  |  | inactive
3 | CC[C@H](C)[C@H](NC(=O)[C@H](CCCNC(=N)N)NC(=O)[C@@H](NC(=O)[C@H](C)NC(=O)[C@@H](NC(=O)[C@@H](NC(=O)[C@H](CC(C)C)NC(=O)[C@H](CCCNC(=N)N)NC(=O)[C@@H](N)C(C)C)[C@@H](C)CC)C(C)C)C(C)C)C(=O)N[C@@H](Cc1c[nH]c2ccccc12)C(=O)N[C@@H](CCCNC(=N)N)C(=O)N[C@@H](CCN)C(N)=O (H-VRLIVAVRIWR[Dab]-NH2) |  |  |  | inactive
4 | CC[C@H](C)[C@H](NC(=O)[C@H](CCCNC(=N)N)NC(=O)[C@@H](NC(=O)[C@H](C)NC(=O)[C@@H](NC(=O)[C@@H](NC(=O)[C@H](CC(C)C)NC(=O)[C@H](CCCNC(=N)N)NC(=O)[C@@H](N)C(C)C)[C@@H](C)CC)C(C)C)C(C)C)C(=O)N[C@@H](Cc1c[nH]c2ccccc12)C(=O)N[C@@H](CCCNC(=N)N)C(=O)N[C@@H](CN)C(N)=O (H-VRLIVAVRIWR[Dap]-NH2) | Dose-dependent effect | 11.9% | Active | 
5 | CC[C@H](C)[C@H](NC(=O)[C@H](CCCNC(=N)N)NC(=O)[C@@H](NC(=O)[C@H](C)NC(=O)[C@@H](NC(=O)[C@@H](NC(=O)[C@H](CC(C)C)NC(=O)[C@H](CCCNC(=N)N)NC(=O)[C@@H](N)C(C)C)[C@@H](C)CC)C(C)C)C(C)C)C(=O)N[C@@H](Cc1c[nH]c2ccccc12)C(=O)N[C@@H](CCCNC(=N)N)C(=O)N[C@@H](CCCN)C(N)=O (H-VRLIVAVRIWR[Orn]-NH2) | Dose-dependent effect | 7.3% | Active | 
6 | CC[C@H](C)[C@H](NC(=O)[C@H](CCCNC(=N)N)NC(=O)[C@@H](NC(=O)[C@H](C)NC(=O)[C@@H](NC(=O)[C@@H](NC(=O)[C@H](CC(C)C)NC(=O)[C@H](CCCNC(=N)N)NC(=O)[C@@H](N)C(C)C)[C@@H](C)CC)C(C)C)C(C)C)C(=O)N[C@@H](Cc1c[nH]c2ccccc12)C(=O)N[C@@H](CCCNC(=N)N)C(=O)N[C@@H](CCCCNC(=N)N)C(N)=O (H-VRLIVAVRIWR[hArg]-NH2) | Dose-dependent effect | 8.5% | Active | 
7 | CC[C@H](C)[C@H](NC(=O)[C@H](CCCNC(=N)N)NC(=O)[C@@H](NC(=O)[C@H](C)NC(=O)[C@@H](NC(=O)[C@@H](NC(=O)[C@H](CC(C)C)NC(=O)[C@H](CCCNC(=N)N)NC(=O)[C@@H](N)C(C)C)[C@@H](C)CC)C(C)C)C(C)C)C(=O)N[C@@H](Cc1c[nH]c2ccccc12)C(=O)N[C@@H](CCNC(=N)N)C(=O)N[C@@H](CCCNC(=N)N)C(N)=O (H-VRLIVAVRIW[Agb]R-NH2) |  |  |  | inactive
8 | CC[C@H](C)[C@H](NC(=O)[C@H](CCCNC(=N)N)NC(=O)[C@@H](NC(=O)[C@H](C)NC(=O)[C@@H](NC(=O)[C@@H](NC(=O)[C@H](CC(C)C)NC(=O)[C@H](CCCNC(=N)N)NC(=O)[C@@H](N)C(C)C)[C@@H](C)CC)C(C)C)C(C)C)C(=O)N[C@@H](Cc1c[nH]c2ccccc12)C(=O)N[C@@H](CNC(=N)N)C(=O)N[C@@H](CCCNC(=N)N)C(N)=O (H-VRLIVAVRIW[Agp]R-NH2) |  |  |  | inactive
9 | CC[C@H](C)[C@H](NC(=O)[C@H](CCCNC(=N)N)NC(=O)[C@@H](NC(=O)[C@H](C)NC(=O)[C@@H](NC(=O)[C@@H](NC(=O)[C@H](CC(C)C)NC(=O)[C@H](CCCNC(=N)N)NC(=O)[C@@H](N)C(C)C)[C@@H](C)CC)C(C)C)C(C)C)C(=O)N[C@@H](Cc1c[nH]c2ccccc12)C(=O)N[C@@H](CCN)C(=O)N[C@@H](CCCNC(=N)N)C(N)=O (H-VRLIVAVRIW[Dab]R-NH2) |  |  |  | inactive
10 | CC[C@H](C)[C@H](NC(=O)[C@H](CCCNC(=N)N)NC(=O)[C@@H](NC(=O)[C@H](C)NC(=O)[C@@H](NC(=O)[C@@H](NC(=O)[C@H](CC(C)C)NC(=O)[C@H](CCCNC(=N)N)NC(=O)[C@@H](N)C(C)C)[C@@H](C)CC)C(C)C)C(C)C)C(=O)N[C@@H](Cc1c[nH]c2ccccc12)C(=O)N[C@@H](CN)C(=O)N[C@@H](CCCNC(=N)N)C(N)=O (H-VRLIVAVRIW[Dap]R-NH2) | Dose-dependent effect | 19.9% | Active | 
11 | CC[C@H](C)[C@H](NC(=O)[C@H](CCCNC(=N)N)NC(=O)[C@@H](NC(=O)[C@H](C)NC(=O)[C@@H](NC(=O)[C@@H](NC(=O)[C@H](CC(C)C)NC(=O)[C@H](CCCNC(=N)N)NC(=O)[C@@H](N)C(C)C)[C@@H](C)CC)C(C)C)C(C)C)C(=O)N[C@@H](Cc1c[nH]c2ccccc12)C(=O)N[C@@H](CCCN)C(=O)N[C@@H](CCCNC(=N)N)C(N)=O (H-VRLIVAVRIW[Orn]R-NH2) | Dose-dependent effect | 12.3% | Active | 
12 | CC[C@H](C)[C@H](NC(=O)[C@H](CCCNC(=N)N)NC(=O)[C@@H](NC(=O)[C@H](C)NC(=O)[C@@H](NC(=O)[C@@H](NC(=O)[C@H](CC(C)C)NC(=O)[C@H](CCCNC(=N)N)NC(=O)[C@@H](N)C(C)C)[C@@H](C)CC)C(C)C)C(C)C)C(=O)N[C@@H](Cc1c[nH]c2ccccc12)C(=O)N[C@@H](CCCCNC(=N)N)C(=O)N[C@@H](CCCNC(=N)N)C(N)=O (H-VRLIVAVRIW[hArg]R-NH2) | Dose-dependent effect | 10.8% | Active | 
13 | CC[C@H](C)[C@H](NC(=O)[C@H](CCCNC(=N)N)NC(=O)[C@@H](NC(=O)[C@H](C)NC(=O)[C@@H](NC(=O)[C@@H](NC(=O)[C@H](CC(C)C)NC(=O)[C@H](CCCNC(=N)N)NC(=O)[C@@H](N)C(C)C)[C@@H](C)CC)C(C)C)C(C)C)C(=O)N[C@@H](CCNC(=N)N)C(=O)N[C@@H](CCCNC(=N)N)C(=O)N[C@@H](CCCNC(=N)N)C(N)=O (H-VRLIVAVRI[Agb]RR-NH2) | Dose-dependent effect | 103.7% | Active | 
14 | CC[C@H](C)[C@H](NC(=O)[C@H](CCCNC(=N)N)NC(=O)[C@@H](NC(=O)[C@H](C)NC(=O)[C@@H](NC(=O)[C@@H](NC(=O)[C@H](CC(C)C)NC(=O)[C@H](CCCNC(=N)N)NC(=O)[C@@H](N)C(C)C)[C@@H](C)CC)C(C)C)C(C)C)C(=O)N[C@@H](CNC(=N)N)C(=O)N[C@@H](CCCNC(=N)N)C(=O)N[C@@H](CCCNC(=N)N)C(N)=O (H-VRLIVAVRI[Agp]RR-NH2) | Dose-dependent effect | 102.9% | Active | 
